One assay concerns the target T1, Constitutive NO synthase (Rattus norvegicus, UniProt Q62600).
T1 construct: The basal tone of the tissue is used as an indication of the activity of the constitutive NO synthase; from tissue; host or cells: rat aortic rings
The assay can be described thus: Constitutive NO synthase inhibition (method of Rees et al, Br. J. Pharmacol. 1990; rat aortic rings in vitro, basal tone). The format is cell-based. How it is done: The activity of a compound as an inhibitor of the enzyme NO synthase can be determined by an assay in which a macrophage cell line (J774) is induced to express NO synthase with lipopolysaccharide (LPS) and interferon gamma and NO generated is measured by its reaction with haemoglobin or as nitrite. […] Selectivity can be determined by use of an assay based on rat aortic rings in vitro. The basal tone of the tissue is used as an indication of the activity of the constitutive NO synthase whereas LPS-induced loss of tone mediated by NO is used as an indication of the activity of the inducible enzyme in the vascular smooth muscle cells. […] Constitutive NO synthase--method of Rees et al, Br. J. Pharmacol., 101, 746-752 (1990)

In another assay the target is T2, Inducible NO synthase (Rattus norvegicus, UniProt Q06518).
T2 construct: activity of the inducible enzyme in the vascular smooth muscle cells; from tissue; host or cells: rat aortic rings, LPS-induced (vascular smooth muscle)
The assay can be described thus: Inducible NO synthase inhibition (method essentially according to Rees et al, Biochem. Biophys. Res. Comm. 1990; rat aortic rings, LPS-induced loss of tone). The assay is classed as cell-based. The note with it: for EC50 ratio: constitutive EC50 / inducible EC50. How it is done:
The activity of a compound as an inhibitor of the enzyme NO synthase can be determined by an assay in which a macrophage cell line (J774) is induced to express NO synthase with lipopolysaccharide (LPS) and interferon gamma and NO generated is measured by its reaction with haemoglobin or as nitrite. […] Selectivity can be determined by use of an assay based on rat aortic rings in vitro. The basal tone of the tissue is used as an indication of the activity of the constitutive NO synthase whereas LPS-induced loss of tone mediated by NO is used as an indication of the activity of the inducible enzyme in the vascular smooth muscle cells.
Inducible NO synthase--method essentially according to Rees et al, Biochem. Biophys. Res. Comm., 173, 541-547 (1990).

In assay [1] the test system is constitutive and the inducible NO synthase. The settings on record: inhibits both constitutive and inducible NO synthase; cited from earlier work.
Where [2] appears, read: inducible NO synthase, read-out: NO Synthase Activity Inducible EC50.

Here are results for five compounds from patent publication US5863931A, “Amidino derivatives and their use as nitric oxide synthase inhibitors” (priority 1991, dated 1999).

One may read the pEC50 as the EC50 on a negative log10 scale, so that one unit is a factor of ten.

pEC50: −log10 of the molar value. Where two headings read alike, the source gives them in different places.

For the compound `CC(=N)NCCCC[C@H](N)C(=O)O.Cl` [Example 2, (S)-N^6-(1-Iminoethyl) lysine hydrochloride], on Constitutive NO synthase, the pEC50 is 5.16. For the same compound, at Inducible NO synthase, the pEC50 is 6.80 and the EC50 ratio amounted to 43.1.
Turning to `CC(=N)NC/C=C/CC(N)C(=O)O.Cl` (racemic) [Example 3, (±)-E-2-Amino-6-(1-Iminoethylamino)-hex-4-enoic acid hydrochloride], the negative-log EC50 (pEC50) on Constitutive NO synthase is 5.51; at Inducible NO synthase (setting [2]), 6.49. Besides, the EC50 ratio on Inducible NO synthase worked out at 9.7.
The corresponding values for `CC(=N)NCCC[C@H](N)C(=O)O.Cl` [Example 1, (S)-N^5-(1-Iminoethyl)ornithine hydrochloride] are 5.29, 6.85 and 36.4.
Consider `CC(=N)NCCSC[C@@H](N)C(=O)O.Cl` [Example 4, (S)-S-2-(1-Iminoethylamino)ethylcysteine hydrochloride], for which the pEC50 is 5.37 at Constitutive NO synthase and 6.89 on Inducible NO synthase (setting [2]). Besides, the EC50 ratio on Inducible NO synthase is reported as 33.4.
As for `CN=C(N)NCCC[C@H](N)C(=O)O` [L-NMMA, L-N-monomethyl-arginine], the “selectivity between constitutive and inducible NO synthase” value in assay [1] was “non-selective”.
